Laboratory results: the supplement of paper PMC7224384

Assays:
[1] = test system: MDA-MB-453; assay: drug sensitivity score (DSS), in combination with BLU9931 (DSS (weighted AUC score)); higher = more sensitive (stronger viability decrease); extreme values may be limits of the assay; conditions: BLU9931 100 nM; 72 h
Method in brief: (§1)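 Drug sensitivity scores come from a weighted area under a four-parameter logistic fit to percent viability, normalised per plate to control wells. Viability was based on cellular ATP read with CellTiterGlo 2.0 after 72 h at 37 °C, 5% CO2. Each 384-well plate carried FIMM Oncology set compounds in singlicate at five 10-fold dilutions, with 2000 MDA-MB-453 cells per well in medium with or without an FGFR4 inhibitor at 100 nM final.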

[2] = test system: MDA-MB-453; assay: drug sensitivity score (DSS), single agent (DSS (weighted AUC score)); higher = more sensitive (stronger viability decrease); extreme values may be limits of the assay; conditions: BLU9931 0 nM; 72 h
Method in brief: as §1

| SMILES | drug sensitivity score [1] | drug sensitivity score [2] |
| --- | --- | --- |
| C[C@@H]1CN(Cc2ccc(F)cc2)[C@@H](C)CN1C(=O)c1cc2c(C(=O)C(=O)N(C)C)cn(C)c2cc1Cl [Talmapimod] | 0 | 0 |
| COc1cc(Nc2ncc(F)c(Nc3ccc4c(n3)NC(=O)C(C)(C)O4)n2)cc(OC)c1OC [Tamatinib] | 0 | 0 |
| CC/C(=C(\c1ccccc1)c1ccc(OCCN(C)C)cc1)c1ccccc1 [Tamoxifen] | 2.4 | 5.3 |
| COc1cc2c(N3CCN(C(=O)Nc4ccc(OC(C)C)cc4)CC3)ncnc2cc1OCCCN1CCCCC1 [Tandutinib] | 0 | 0 |
| O[C@H]1CC[C@H](Nc2ncc3nc(Nc4c(F)cc(F)cc4F)n([C@H]4CCOC4)c3n2)CC1 [Tanzisertib] | 0 | 0 |
| C[C@@H](C(=O)O)c1ccc(-c2ccccc2)c(F)c1 [Tarenflurbil] | 0 | 0 |
| Cc1nc(-c2cn3c(n2)-c2ccc(-c4cnn(C(C)(C)C(N)=O)c4)cc2OCC3)n(C(C)C)n1 [Taselisib] | 19.3 | 17.9 |
| COc1cccc2c1c(O)c(C(=O)N(C)c1ccc(C(F)(F)F)cc1)c(=O)n2C [Tasquinimod] | 1.4 | 2.9 |
| CCN(c1cc(-c2ccc(CN3CCOCC3)cc2)cc(C(=O)NCc2c(C)cc(C)[nH]c2=O)c1C)C1CCOCC1 [Tazemetostat] | 0 | 2.1 |
| CNC(=O)c1cc(COc2nnc(Nc3ccc(Cl)cc3)c3ccoc23)ccn1 [Telatinib] | 0 | 1.2 |
| Cn1nnc2c(C(N)=O)ncn2c1=O [Temozolomide] | 0 | 0 |
| CO[C@H]1C[C@@H]2CC[C@@H](C)[C@@](O)(O2)C(=O)C(=O)N2CCCC[C@H]2C(=O)O[C@H]([C@H](C)C[C@@H]2CC[C@@H](OC(=O)C(C)(CO)CO)[C@H](OC)C2)CC(=O)[C@H](C)/C=C(\C)[C@@H](O)[C@@H](OC)C(=O)[C@H](C)C[C@H](C)/C=C/C=C/C=C/1C [Temsirolimus] | 14.8 | 10.3 |
| COc1cc([C@@H]2c3cc4c(cc3[C@@H](O[C@@H]3O[C@@H]5CO[C@@H](c6cccs6)O[C@H]5[C@H](O)[C@H]3O)[C@H]3COC(=O)[C@H]23)OCO4)cc(OC)c1O [Teniposide] | 0 | 0 |
| CN1CCC(COc2cnc(-c3cccc(Cn4nc(-c5cccc(C#N)c5)ccc4=O)c3)nc2)CC1 [Tepotinib] | 0 | 0 |
| COc1cc2c(Nc3ccc(Cl)c(Cl)c3F)ncnc2cc1OC[C@@H]1C[C@@H]2CN(C)C[C@@H]2C1 [Tesevatinib] | 11.5 | 7.6 |
| O=C1CCC(N2C(=O)c3ccccc3C2=O)C(=O)N1 (configuration not stated) [Thalidomide] | 1 | 0 |
| Nc1nc2[nH]cnc2c(=S)[nH]1 [Thioguanine] | 5.9 | 10.4 |
| O=c1sn(-c2cccc3ccccc23)c(=O)n1Cc1ccccc1 [Tideglusib] | 0 | 0 |
| Cn1cncc1[C@@](N)(c1ccc(Cl)cc1)c1ccc2c(c1)c(-c1cccc(Cl)c1)cc(=O)n2C [Tipifarnib] | 4.1 | 8.3 |

| SMILES | drug sensitivity score [1] | drug sensitivity score [2] |
| --- | --- | --- |
| CC#CC(=O)N1CC[C@@H](n2c(=O)n(-c3ccc(Oc4ccccc4)cc3)c3c(N)ncnc32)C1 [Tirabrutinib] | 6.3 | 5.7 |
| O=C1NC(=O)[C@@H](c2cn3c4c(cccc24)CCC3)[C@@H]1c1c[nH]c2ccccc12 [Tivantinib] | 2 | 4.4 |
| COc1cc2nccc(Oc3ccc(NC(=O)Nc4cc(C)on4)c(Cl)c3)c2cc1OC [Tivozanib] | 1.4 | 2.8 |
| C[C@@H]1CCN(C(=O)CC#N)C[C@@H]1N(C)c1ncnc2[nH]ccc12 [Tofacitinib] | 0 | 0 |
| CC[C@@]1(O)C(=O)OCc2c1cc1n(c2=O)Cc2cc3c(CN(C)C)c(O)ccc3nc2-1 [Topotecan] | 12.5 | 14.7 |
| CN(C)CCOc1ccc(/C(=C(/CCCl)c2ccccc2)c2ccccc2)cc1 [Toremifene] | 4.1 | 6 |
| CC(C)C[C@@H](C(=O)N[C@H](C(=O)OC1CCCC1)c1ccccc1)[C@H](O)C(=O)NO [Tosedostat] | 10.1 | 9.4 |
| Cc1cc(Nc2cc(N3CCN(C)CC3)nc(Sc3ccc(NC(=O)C4CC4)cc3)n2)n[nH]1 [Tozasertib] | 0 | 2.5 |
| CC(=O)Nc1cccc(-n2c(=O)n(C3CC3)c(=O)c3c(Nc4ccc(I)cc4F)n(C)c(=O)c(C)c32)c1 [Trametinib] | 2.7 | 5.7 |
| CC1=C(/C=C/C(C)=C/C=C/C(C)=C/C(=O)O)C(C)(C)CCC1 [Tretinoin] | 0 | 0 |
| NC(=S)N/N=C/c1ncccc1N [Triapine] | 1.3 | 0.1 |
| O=c1[nH]c(=O)n([C@H]2C[C@H](O)[C@@H](CO)O2)cc1C(F)(F)F [Trifluridine] | 1.2 | 2.6 |
| O=C(CCCCCCC(=O)Nc1ccc([C@H]2O[C@@H](CSc3nc(-c4ccccc4)c(-c4ccccc4)o3)C[C@@H](c3ccc(CO)cc3)O2)cc1)NO [Tubacin] | 1.7 | 2 |
| CN1CCc2c(c3ccccc3n2Cc2ccc(C(=O)NO)cc2)C1 [Tubastatin A] | 2.1 | 4.1 |
| Cc1cc(Nc2ncnc3ccc(NC4=NC(C)(C)CO4)cc23)ccc1Oc1ccn2ncnc2c1 [Tucatinib] | 0.8 | 0.5 |
| Nc1cc(F)ccc1NC(=O)c1ccc(CNC(=O)/C=C/c2cccnc2)cc1 [Tucidinostat] | 10.1 | 9.8 |
| CN[C@@H]1C[C@H]2O[C@@](C)([C@@H]1OC)n1c3ccccc3c3c4c(c5c6ccccc6n2c5c31)C(=O)N[C@H]4O [UCN-01] | 16 | 18.2 |
| COC(=O)c1ccc2c(c1)[nH]c1ncnc(NCCCN3CCCCC3)c12 [UM729] | 1.3 | 2 |
| COc1cc2c(NC3CCN(C(C)C)CC3)nc(C3CCCCC3)nc2cc1OCCCN1CCCC1 [UNC0638] | 4.9 | 0 |

| SMILES | drug sensitivity score [1] | drug sensitivity score [2] |
| --- | --- | --- |
| COc1cc2c(NC3CCN(C(C)C)CC3)nc(N3CCC(F)(F)CC3)nc2cc1OCCCN1CCCC1 [UNC0642] | 1.4 | 2.1 |
| O=C(c1ccc(C(=O)N2CCC(N3CCCC3)CC2)c(Nc2ccccc2)c1)N1CCC(N2CCCC2)CC1 [UNC1215] | 0 | 0 |
| CCCCNc1ncc(C(=O)NCc2ccc(-n3ccnc3)cc2)c(NC2CCC(O)CC2)n1 (configuration not stated) [UNC2881] | 0 | 0 |
| NC(=O)c1cccc(-c2cccc(OC(=O)NC3CCCCC3)c2)c1 [URB597] | 0 | 0 |
| CC(C)Nc1cc(-c2c[nH]c(C(=O)N[C@H](CO)c3cccc(Cl)c3)c2)c(Cl)cn1 [Ulixertinib] | 0.5 | 3.5 |
| CC[C@@H]1CN(C(=O)NCC(F)(F)F)C[C@@H]1c1cnc2cnc3[nH]ccc3n12 [Upadacitinib] | 0 | 0.9 |
| Cn1ncc(Cl)c1-c1cc(C(=O)N[C@H](CN)Cc2ccc(F)c(F)c2)oc1Cl [Uprosertib] | 11.2 | 7.6 |
| CS(=O)(=O)c1ccc(-c2cnc(N)c(C(=O)Nc3ccccc3)n2)cc1 [VE-821] | 4.7 | 2 |
| O=C(O)CC1CC(c2ccccc2)=NO1 (configuration not stated) [VGX-1027] | 0 | 0 |
| C=CC(=O)N1CC/C(=C\c2ccc(F)c([N+](=O)[O-])c2)C(=O)/C(=C/c2ccc(F)c([N+](=O)[O-])c2)C1 [VLX1570] | 19.3 | 21.1 |
| CNC(=O)c1ccccc1Nc1cc(Nc2ccc(N3CCOCC3)cc2OC)ncc1C(F)(F)F [VS-4718] | 0 | 1.9 |
| CCCC(CCC)C(=O)O [Valproic acid] | 0.9 | 1.6 |
| CCCCC(=O)OCC(=O)[C@]1(O)Cc2c(O)c3c(c(O)c2[C@@H](O[C@H]2C[C@H](NC(=O)C(F)(F)F)[C@H](O)[C@H](C)O2)C1)C(=O)c1c(OC)cccc1C3=O [Valrubicin] | 8 | 8.6 |
| COc1cc2/c(=N/c3ccc(Br)cc3F)nc[nH]c2cc1OCC1CCN(C)CC1 [Vandetanib] | 0 | 0 |
| CCc1c(C(=O)C(N)=O)c2c(OCC(=O)O)cccc2n1Cc1ccccc1 [Varespladib] | 0.8 | 0 |
| C[C@@H]1COC(Nc2ccc3ncnc(Nc4ccc(OCc5nccs5)c(Cl)c4)c3c2)=N1 [Varlitinib] | 9.1 | 6.3 |
| Clc1ccc(Nc2nnc(Cc3ccncc3)c3ccccc23)cc1 [Vatalanib] | 0.3 | 0.8 |
| C[C@]1(c2nc3c(C(N)=O)cccc3[nH]2)CCCN1 [Veliparib] | 2.9 | 1.6 |
